The record followed here is patent publication EP4574773A1, “DEVICE AND METHOD FOR TREATING CO[…] EFFLUENTS” (Université Gustave Eiffel, priority 2023, dated 2025).

In the data set the test system is heterotrophic micro-organisms. Briefly: BOD analyses with increasing perchlorate concentrations (respirometric, activated sludge). In kind it is cell-based. The note with it: activated sludge from a MBBR reactor; perchlorate 5 and 35 mg L^-1; data not shown. The procedure: BOD analyses : For these measurements, the range was 0 - 400 mgO2 L^-1, the BOD test solutions were composed of: 141.6 mL of a mixture of carboxylic acids: oxalic acid (625 mg L^-1), maleic acid (137 mg L^-1), glyoxylic acid (261 mg L^-1), and formic acid oxalic acid (321 mg L^-1); 10 mL of a buffer solution: KH2PO4 (8.6 g L^-1), K2HPO4 (21.75 g L^-1), (Na2HPO4,2H2O) (33.4 g L^-1), NH4Cl (1.7 g L^-1); 0.4 mL of- Allylthiourea (C4H8N2S) (1 g L^-1), and 1 mL of activated sludge from a MBBR reactor who had been previously fed with the raw MLL for 4 months, completed with 11 mL concentrate solutions of perchlorate to obtain respective concentrations in perchlorate of 5 and 35 mg L^-1 in the final 164 mL liquid volume.
BOD analyses with increasing perchlorate concentrations have been performed following a similar procedure as previously explained in the last section. […]

SMILES strings stand for the structures.

Consider `[O-][Cl+3]([O-])([O-])O` [perchlorate], for which the “effect on heterotrophic micro-organisms” value is “inihibiting effect”.
